From patent publication US11072619B2, “Pyrazole[1,5-a] pyrimidine derivatives as kinase JAK inhibitors” (CELON PHARMA S.A., priority 2017, dated 2021)

Assays:
Recombinant kinase JAK2 = Recombinant kinase JAK2 (Homo sapiens (Human), UniProt O60674); assay: In vitro JAK kinase inhibition assay (ADP-Glo), JAK2; assay type: biochemical; conditions: 30 μM ATP, peptide IGF-1Rtide, averaged
Procedure: (§1) In Vitro JAK Kinase Inhibition Assay
(§2) The effects of the compounds of the invention were analysed in vitro using kinase JAK inhibition assay described below.
Tested compounds were dissolved in 100% DMSO, and obtained stock solutions were serially diluted in the reaction buffer (50 mM Tris pH 7.5, 10 mM MgCl2, 0.25 mM EGTA, 0.1 mM Na3VO4, 0.01% Triton X-100, 2.5 mM DTT). Recombinant kinases JAK1 (ProQinase), JAK2, or JAK3 (Carna Biosciences) were diluted in the dilution buffer (50 mM Tris-HCl pH 7.5, 150 mM NaCl, 10% glycerol, 0.05% Triton X-100, 1 mM DTT) to the final concentration 3 ng/μL (JAK1), 0.1 ng/μL (JAK2), or 0.2 ng/μL (JAK3). 5 μL of obtained solution of the compounds and 5 μL of the solution of respective kinases were added to the well of a 96-well plate. To initiate interaction between tested compounds and an enzyme, the plate was incubated for 10 minutes at 25° C. in a Plate-Thermo-Shaker with orbital stirring at 400 rpm. Wells of a negative control contained all reagents as mentioned above with the exception of tested compounds and kinase, and wells of a positive controls contained all reagents as mentioned above with the exception of tested compounds. […] Then the plate was incubated for 1 hour at 25° C. in a Plate-Thermo-Shaker, with orbital stirring at 400 rpm. Detection of ADP formed in the enzymatic reaction was then performed using ADP-Glo Kinase Assay kit (Promega). For this purpose, to the well of the 96-well plate 25 μL of ADP-Glo Reagent were added, and the plate was incubated for 40 minutes at 25° C. in a Plate-Thermo-Shaker with orbital stirring at 400 rpm. Then to the well of the 96-well plate 50 μL of Kinase Detection Reagent were added and the plate was incubated for 30 minutes at 25° C. in a Plate-Thermo-Shaker with orbital stirring at 400 rpm. After incubation, luminescence intensity was measured using Victor×Light luminometer (Perkin Elmer, Inc.).
(§3) On the basis of luminescence measurement in wells containing tested compounds at various concentrations and in control wells, IC50 values were determined. These values were determined with Graph Pad software v. 5.03, by fitting points of the curve using non-linear regression method. Each compound was tested in at least 6 repetitions (6 wells) on two 96-well plates, using at least 3 wells of each control.

TF-1 cells [1] = assay: TF-1 cells viability in vitro in the presence of IL-3 (JAK2 activation); assay type: cell-based; conditions: Homo sapiens, 5 ng/mL IL-3, 72 hours, ATPlite, read-out: JAK2 IL3 (EC50, inhibition of viability of TF-1 cells)
Procedure: (§4) Assay for TF-1 Cells Viability In Vitro
(§5) The effects of the activity of the compounds of the invention were tested in vitro using cells viability assay described below.
Tested compounds were dissolved in 100% DMSO, and obtained stock solutions were serially diluted in OptiMEM medium (Reduced Serum Medium-Thermo Fisher Scientific). […] To a well of the 96-well plate 10 μL of the prepared 10× stock solutions of the compounds. Cells on 96-well plates were incubated with the compounds for 72 hours at 37° C., 5% CO2. Subsequently, viability of the cells was measured using ATPlite kit (Perkin Elmer). For this purpose, 50 μL of lysis buffer (mammalian cell lysis solution) were added to a well of the 96-well plate and the plate was incubated for 10 minutes at 25° C. in a plate thermo-shaker with orbital stirring at 600 rpm. Then to a well of the 96-well plate 50 μL of substrate (substrate solution) were added and incubated for 15 minutes at in dark, in a plate thermo-shaker with orbital stirring at 600 rpm. After incubation time, luminescence intensity in a well was measured using Victor×Light luminometer (Perkin Elmer, Inc.).
On the basis of luminescence intensity measurements in well containing tested compounds at various concentrations and in control wells EC50 values were determined. These values were determined with Graph Pad software v. […] Each compound was tested in at least 6 repetitions (6 wells) on two 96-well plates, using at least 3 wells of each control.

TF-1 cells [2] = assay: TF-1 cells viability in vitro in the presence of IL-4 (JAK1/JAK3 activation); assay type: cell-based; conditions: for IC50: Homo sapiens, TF-1, 20 ng/mL IL-4, 72 hours, ATPlite, read-out: JAK1,3 IL4 (EC50, inhibition of viability of TF-1 cells); for JAK2/JAK1,3 Ratio: ratio of TF-1 viability EC50 with IL3 to EC50 with IL4
Procedure: as §4, §5
Tested compounds were dissolved in 100% DMSO, and obtained stock solutions were serially diluted in OptiMEM medium (Reduced Serum Medium-Thermo Fisher Scientific). TF-1 cells (DSMZ no.: ACC 334) in culture medium (80% RPMI 1640+20% FBS) ad in the presence of 5 ng/mL IL-3 or 20 ng/mL IL-4 were deposited on 96-well plates in the volume of 90 μl per well, 10 thousands of cells per well. To a well of the 96-well plate 10 μL of the prepared 10× stock solutions of the compounds. Cells on 96-well plates were incubated with the compounds for 72 hours at 37° C., 5% CO2. Subsequently, viability of the cells was measured using ATPlite kit (Perkin Elmer). For this purpose, 50 μL of lysis buffer (mammalian cell lysis solution) were added to a well of the 96-well plate and the plate was incubated for 10 minutes at 25° C. in a plate thermo-shaker with orbital stirring at 600 rpm. Then to a well of the 96-well plate 50 μL of substrate (substrate solution) were added and incubated for 15 minutes at in dark, in a plate thermo-shaker with orbital stirring at 600 rpm. After incubation time, luminescence intensity in a well was measured using Victor×Light luminometer (Perkin Elmer, Inc.).
as §3, with “luminescence intensity measurements” for “luminescence measurement”, “in well” for “in wells”, “control wells EC50” for “control wells, IC50”

Recombinant kinase JAK1 = Recombinant kinase JAK1 (Homo sapiens (Human), UniProt P23458); assay: In vitro JAK kinase inhibition assay (ADP-Glo), JAK1; assay type: biochemical; conditions: 30 μM ATP, peptide IRS-1, averaged
Procedure: as §1, §2
(§6) Tested compounds were dissolved in 100% DMSO, and obtained stock solutions were serially diluted in the reaction buffer (50 mM Tris pH 7.5, 10 mM MgCl2, 0.25 mM EGTA, 0.1 mM Na3VO4, 0.01% Triton X-100, 2.5 mM DTT). Recombinant kinases JAK1 (ProQinase), JAK2, or JAK3 (Carna Biosciences) were diluted in the dilution buffer (50 mM Tris-HCl pH 7.5, 150 mM NaCl, 10% glycerol, 0.05% Triton X-100, 1 mM DTT) to the final concentration 3 ng/μL (JAK1), 0.1 ng/μL (JAK2), or 0.2 ng/μL (JAK3). 5 μL of obtained solution of the compounds and 5 μL of the solution of respective kinases were added to the well of a 96-well plate. To initiate interaction between tested compounds and an enzyme, the plate was incubated for 10 minutes at 25° C. in a Plate-Thermo-Shaker with orbital stirring at 400 rpm. Wells of a negative control contained all reagents as mentioned above with the exception of tested compounds and kinase, and wells of a positive controls contained all reagents as mentioned above with the exception of tested compounds. Enzymatic reaction was initiated by the addition of 15 μL of the following solution: 5× concentrated reaction buffer (50 mM Tris pH 7.5, 10 mM MgCl2, 0.25 mM EGTA, 0.1 mM Na3VO4, 0.01% Triton X-100, 2.5 mM DTT), water, 30 μM ATP and for particular kinases: JAK1—60 μM peptide IRS-1 (Enzo), JAK2 or JAK3—10 μM peptide IGF-1Rtide (Lipopharm). Then the plate was incubated for 1 hour at 25° C. in a Plate-Thermo-Shaker, with orbital stirring at 400 rpm. Detection of ADP formed in the enzymatic reaction was then performed using ADP-Glo Kinase Assay kit (Promega). For this purpose, to the well of the 96-well plate 25 μL of ADP-Glo Reagent were added, and the plate was incubated for 40 minutes at 25° C. in a Plate-Thermo-Shaker with orbital stirring at 400 rpm. Then to the well of the 96-well plate 50 μL of Kinase Detection Reagent were added and the plate was incubated for 30 minutes at 25° C. in a Plate-Thermo-Shaker with orbital stirring at 400 rpm. After incubation, luminescence intensity was measured using Victor×Light luminometer (Perkin Elmer, Inc.).
as §3
(§7) Averaged results of kinases JAK inhibition activity for selected compounds of the present invention are presented below in Table 1.

Recombinant kinase JAK3 = Recombinant kinase JAK3 (Homo sapiens (Human), UniProt P52333); assay: In vitro JAK kinase inhibition assay (ADP-Glo), JAK3; assay type: biochemical; conditions: 30 μM ATP, peptide IGF-1Rtide, averaged
Procedure: as §1, §2, §6, §3, §7

Sequence of Recombinant kinase JAK3 (P52333 whole entry): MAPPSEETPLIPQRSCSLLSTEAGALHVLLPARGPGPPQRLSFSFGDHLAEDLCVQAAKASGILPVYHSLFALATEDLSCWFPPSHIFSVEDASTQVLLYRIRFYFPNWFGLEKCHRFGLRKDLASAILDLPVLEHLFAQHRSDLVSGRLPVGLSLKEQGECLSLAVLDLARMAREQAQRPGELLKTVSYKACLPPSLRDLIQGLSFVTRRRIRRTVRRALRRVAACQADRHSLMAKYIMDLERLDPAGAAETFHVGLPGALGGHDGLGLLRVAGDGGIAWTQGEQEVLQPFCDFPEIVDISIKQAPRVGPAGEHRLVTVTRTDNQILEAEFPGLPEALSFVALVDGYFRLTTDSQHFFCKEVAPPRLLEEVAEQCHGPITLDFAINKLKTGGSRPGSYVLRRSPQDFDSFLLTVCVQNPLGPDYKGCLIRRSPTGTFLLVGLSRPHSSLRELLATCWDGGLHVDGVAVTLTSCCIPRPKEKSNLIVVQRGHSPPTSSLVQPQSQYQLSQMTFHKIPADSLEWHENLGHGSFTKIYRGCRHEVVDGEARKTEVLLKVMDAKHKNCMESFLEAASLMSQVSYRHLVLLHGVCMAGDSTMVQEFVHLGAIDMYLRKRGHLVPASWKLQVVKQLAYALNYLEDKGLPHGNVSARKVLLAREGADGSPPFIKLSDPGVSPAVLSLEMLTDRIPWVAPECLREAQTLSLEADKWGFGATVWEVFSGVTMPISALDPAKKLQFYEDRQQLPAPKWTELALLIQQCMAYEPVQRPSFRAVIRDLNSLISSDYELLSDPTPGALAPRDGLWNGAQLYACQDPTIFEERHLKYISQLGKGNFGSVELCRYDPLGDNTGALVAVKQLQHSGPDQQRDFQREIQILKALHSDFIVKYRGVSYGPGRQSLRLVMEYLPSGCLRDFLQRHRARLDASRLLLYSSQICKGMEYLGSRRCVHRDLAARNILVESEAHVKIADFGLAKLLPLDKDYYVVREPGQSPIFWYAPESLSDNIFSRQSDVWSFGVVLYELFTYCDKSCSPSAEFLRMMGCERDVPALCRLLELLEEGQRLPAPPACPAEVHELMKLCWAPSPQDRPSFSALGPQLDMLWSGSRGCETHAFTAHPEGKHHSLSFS
Sequence of Recombinant kinase JAK2 (O60674 whole entry): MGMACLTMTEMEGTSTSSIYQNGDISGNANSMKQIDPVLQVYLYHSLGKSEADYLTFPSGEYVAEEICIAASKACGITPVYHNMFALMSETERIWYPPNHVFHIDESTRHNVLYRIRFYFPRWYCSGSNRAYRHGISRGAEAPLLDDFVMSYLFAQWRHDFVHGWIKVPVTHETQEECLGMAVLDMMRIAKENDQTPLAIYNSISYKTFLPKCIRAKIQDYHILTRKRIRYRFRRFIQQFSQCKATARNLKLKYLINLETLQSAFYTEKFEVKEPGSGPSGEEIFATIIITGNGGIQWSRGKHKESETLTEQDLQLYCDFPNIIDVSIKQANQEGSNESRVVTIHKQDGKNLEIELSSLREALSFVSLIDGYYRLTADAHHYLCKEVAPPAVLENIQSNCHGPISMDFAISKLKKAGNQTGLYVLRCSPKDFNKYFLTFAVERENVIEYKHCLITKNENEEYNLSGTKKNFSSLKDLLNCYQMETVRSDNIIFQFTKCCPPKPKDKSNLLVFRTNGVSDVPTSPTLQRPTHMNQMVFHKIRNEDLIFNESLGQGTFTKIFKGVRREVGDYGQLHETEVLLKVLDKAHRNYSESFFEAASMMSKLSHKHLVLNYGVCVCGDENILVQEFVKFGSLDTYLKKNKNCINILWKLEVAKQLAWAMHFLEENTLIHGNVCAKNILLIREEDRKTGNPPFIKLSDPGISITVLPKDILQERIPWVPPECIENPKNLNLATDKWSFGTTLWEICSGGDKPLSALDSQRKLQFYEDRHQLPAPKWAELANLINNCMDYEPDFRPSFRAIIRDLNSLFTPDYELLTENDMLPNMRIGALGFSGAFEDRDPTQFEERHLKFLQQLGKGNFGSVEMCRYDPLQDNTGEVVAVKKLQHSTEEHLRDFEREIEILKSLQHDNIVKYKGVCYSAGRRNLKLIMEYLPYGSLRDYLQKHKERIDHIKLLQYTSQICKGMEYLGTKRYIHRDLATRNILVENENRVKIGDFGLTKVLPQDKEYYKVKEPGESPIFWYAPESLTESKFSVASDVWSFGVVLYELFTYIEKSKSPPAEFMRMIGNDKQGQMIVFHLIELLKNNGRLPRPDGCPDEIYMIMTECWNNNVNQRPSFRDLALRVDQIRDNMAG
Sequence of Recombinant kinase JAK1 (P23458 whole entry): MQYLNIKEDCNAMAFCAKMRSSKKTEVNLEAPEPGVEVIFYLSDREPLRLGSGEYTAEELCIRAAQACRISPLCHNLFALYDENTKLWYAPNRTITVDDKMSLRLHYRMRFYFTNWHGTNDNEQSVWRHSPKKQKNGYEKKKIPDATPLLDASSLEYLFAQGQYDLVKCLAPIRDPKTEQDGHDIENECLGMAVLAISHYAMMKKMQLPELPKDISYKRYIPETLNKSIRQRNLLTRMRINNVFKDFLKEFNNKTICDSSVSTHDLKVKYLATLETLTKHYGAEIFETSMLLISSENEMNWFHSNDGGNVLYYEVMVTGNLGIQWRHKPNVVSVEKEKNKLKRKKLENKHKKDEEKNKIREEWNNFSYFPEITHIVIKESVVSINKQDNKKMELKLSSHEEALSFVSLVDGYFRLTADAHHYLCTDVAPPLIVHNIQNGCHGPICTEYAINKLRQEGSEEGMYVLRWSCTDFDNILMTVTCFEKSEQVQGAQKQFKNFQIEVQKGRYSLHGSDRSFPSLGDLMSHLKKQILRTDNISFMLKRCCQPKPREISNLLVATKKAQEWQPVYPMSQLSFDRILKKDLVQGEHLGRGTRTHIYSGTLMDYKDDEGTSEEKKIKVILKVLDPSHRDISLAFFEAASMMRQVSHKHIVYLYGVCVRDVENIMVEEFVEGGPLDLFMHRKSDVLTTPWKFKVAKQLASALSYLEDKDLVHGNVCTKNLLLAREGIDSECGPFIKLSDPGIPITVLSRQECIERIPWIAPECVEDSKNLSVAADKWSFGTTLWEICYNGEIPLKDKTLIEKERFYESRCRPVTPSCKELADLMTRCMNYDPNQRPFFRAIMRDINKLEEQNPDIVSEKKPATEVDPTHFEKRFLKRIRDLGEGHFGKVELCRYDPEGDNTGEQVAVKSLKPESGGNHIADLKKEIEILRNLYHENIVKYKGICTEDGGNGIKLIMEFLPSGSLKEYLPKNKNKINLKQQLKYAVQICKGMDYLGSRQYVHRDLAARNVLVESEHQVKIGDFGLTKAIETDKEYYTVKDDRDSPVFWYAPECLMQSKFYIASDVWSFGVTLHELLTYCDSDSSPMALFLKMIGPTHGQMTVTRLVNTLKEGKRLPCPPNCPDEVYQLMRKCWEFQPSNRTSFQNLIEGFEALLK

IC50 (Recombinant kinase JAK2) [nM]	IC50 (Recombinant kinase JAK1) [nM]	IC50 (Recombinant kinase JAK3) [nM]	Structure (SMILES)	IC50 (TF-1 cells [1]) [nM]	IC50 (TF-1 cells [2]) [nM]	JAK2/JAK1,3 Ratio (TF-1 cells [2])
19	1.8	1.2	COc1ccc(-c2cc3ncc(C(N)=O)c(N[C@@H]4CCN(c5ccc(C#N)nn5)CC4(C)C)n3n2)cc1 [Example 1, (R)-7-((1-(6-Cyanopyridazin-3-yl)-3,3-dimethylpiperidin-4-yl)amino)-2-(4-methoxy-phenyl)pyrazolo[1,5-a]pyrimidine-6-carboxamide]	837	350	2.4
59.3	3.74	3.77	COc1ccc(F)c(-c2cc3ncc(C(N)=O)c(N[C@@H]4CCN(c5ccc(C#N)nn5)CC4(C)C)n3n2)c1 [Example 2, (R)-7-((1-(6-Cyanopyridazin-3-yl)-3,3-dimethylpiperidin-4-yl)amino)-2-(2-fluoro-5-methoxyphenyl)pyrazolo[1,5-a]pyrimidine-6-carboxamide]	1200	242	5
31.1	4.47	1.58	CC1(C)CN(c2ccc(C#N)nn2)CC[C@H]1Nc1c(C(N)=O)cnc2cc(-c3cccnc3)nn12 [Example 3, (R)-7-((1-(6-Cyanopyridazin-3-yl)-3,3-dimethylpiperidin-4-yl)amino)-2-(pyridin-3-yl)pyrazolo[1,5-a]pyrimidine-6-carboxamide]			
34.4	8.08	1.8	CCOc1ccc(-c2cc3ncc(C(N)=O)c(N[C@@H]4CCN(c5ccc(C#N)nn5)CC4(C)C)n3n2)cn1 [Example 5, (R)-7-((1-(6-Cyanopyridazin-3-yl)-3,3-dimethylpiperidin-4-yl)amino)-2-(6-ethoxy-pyridin-3-yl)pyrazolo[1,5-a]pyridimine-6-carboxamide]			
2.98	0.38	0.16	CC1(C)CN(c2ccc(C#N)nn2)CC[C@H]1Nc1c(C(N)=O)cnc2cc(-c3ccc(N)nc3)nn12 [Example 6, (R)-2-(6-Aminopyridin-3-yl)-7-((1-(6-cyanopyridazin-3-yl)-3,3-dimethylpiperidin-4-yl)amino)pyrazolo[1,5-a]pyrimidine-6-carboxamide]	3330	361	9.2
26.8	8.54	2.24	COc1ncc(-c2cc3ncc(C(N)=O)c(N[C@@H]4CCN(c5ccc(C#N)nn5)CC4(C)C)n3n2)cn1 [Example 8, (R)-7-((1-(6-Cyanopyridazin-3-yl)-3,3-dimethylpiperidin-4-yl)amino)-2-(2-methoxy-pyrimidin-5-yl)pyrazolo[1,5-a]pyrimidine-6-carboxamide]	2020	203	10
89.6	47.5	18.8	CCOc1ncc(-c2cc3ncc(C(N)=O)c(N[C@@H]4CCN(c5ccc(C#N)nn5)CC4(C)C)n3n2)cn1 [Example 9, (R)-7-((1-(6-Cyanopyridazin-3-yl)-3,3-dimethylpiperidin-4-yl)amino)-2-(2-ethoxy-pyrimidin-5-yl)pyrazolo[1,5-a]pyrimidine-6-carboxamide]			
12.8	2.37	0.6	CC1(C)CN(c2ccc(C#N)nn2)CC[C@H]1Nc1c(C(N)=O)cnc2cc(-c3ccc(F)nc3)nn12 [Example 10, (R)-7-((1-(6-Cyanopyridazin-3-yl)-3,3-dimethylpiperidin-4-yl)amino)-2-(6-fluoro-pyridin-3-yl)pyrazolo[1,5-a]pyrimidine-6-carboxamide]	1280	112	11.5
